Values after ≈ are worked out from the molar mass of the structure shown. “Also recorded” adds a separate entry of the source. Square brackets hold non-standard residues; d marks the D form. Ends that are not written are not given here. Peptide text beside a SMILES is read from it.
Tests used:
[1] = test system: Klebsiella pneumonia NCCP 16054; test: MIC, broth dilution; format: cell-based; conditions: standard Gram-negative bacteria, 16 hours
Text: (§1) Among the bacterial strains used in the experiment, Escherichia coli KCTC 1682 was obtained from the Korean Collection for Type Cultures (KCTC) (Jeongeup, Korea), Acinetobacter baumannii KCCM 40203 and Pseudomonas aeruginosa KCCM 11328 were obtained from the Korean Culture Center of Microorganisms (KCCM) (Seoul, Korea), and Klebsiella pneumonia NCCP 16054 was obtained from the National Culture Collection for Pathogens (NCCP) (Osong, Korea). In addition, carbapenem-resistant E. coli NCCP16044 and carbapenem-resistant Klebsiella pneumonia NCCP 15782 were obtained from the NCCP, and three types of carbapenem-resistant A. baumanii CCARM 12004-6 were obtained from the Culture Collection of Antimicrobial Resistance Microbes (CCARM) (Cheongju City, Korea). The E. coli K1 (ATCC700973) strain used in the animal experiments was obtained from the American Type Culture Collection (ATCC) ([…]).
(§2) The antimicrobial activities of the peptides were measured by a minimal inhibitory concentration (MIC) analysis. The MIC was determined using a broth dilution method. All bacterial strains were grown overnight at 37° C. in a Muller-Hinton (MH) medium.

[2] = test system: carbapenem-resistant Klebsiella pneumonia NCCP 15782 (CRKP 15782); test: MIC, broth dilution; format: cell-based; conditions: 16 hours
Text: as §1, §2

[3] = test system: carbapenem-resistant E. coli NCCP16044 (CREC 16044); test: microbe, parasite or virus in culture; format: cell-based; conditions: 16 hours, read-out: Minimal inhibitory concentration (MIC), CREC 16044
Text: as §1, §2

[4] = test system: CRAB 12004 (carbapenem-resistant A. baumanii CCARM); test: MIC, broth dilution; format: cell-based, A. baumannii; conditions: 16 hours, read-out: Minimal inhibitory concentration (MIC), CRAB 12004
Text: as §1, §2

[5] = test system: CRAB 12005 (carbapenem-resistant A. baumanii CCARM); test: MIC, broth dilution; format: cell-based, A. baumannii; conditions: 16 hours, read-out: Minimal inhibitory concentration (MIC), CRAB 12005
Text: as §1, §2

[6] = test system: CRAB 12006 (carbapenem-resistant A. baumanii CCARM); test: MIC, broth dilution; format: cell-based, A. baumannii; conditions: 16 hours, read-out: Minimal inhibitory concentration (MIC), CRAB 12006
Text: as §1, §2

[7] = test system: sheep red blood cells (sRBCs); test: Hemolysis of sheep red blood cells; format: cell-based
Description: Peptide-induced toxicity was determined by hemolysis of sheep red blood cells (sRBCs). Fresh sRBCs were washed three times or more with phosphate buffered saline (PBS), and debris was removed by centrifugation (1000×g, 5 minutes, 4° C.). All the peptides including a melittin control (0.2 to 100 μM) and a positive control (1% (v/v) Triton X-100) were cultured with 4% (v/v) sRBCs at 37° C. for 1 h, and then centrifuged at 1000×g for 5 minutes. The supernatant was measured at 405 nm using a microplate reader.

LPS = test: LAL chromogenic endotoxin assay (LPS neutralization); format: biochemical; conditions: LPS 2 ng/mL; peptide concentration of the values not stated (3.1-50 μM tested)
Description: Peptide-mediated LPS-neutralizing activity was determined using a Limulus amebocyte lysate (LAL) chromogenic endotoxin quantification kit (GenScript, New Jersey, USA). 3.1, 6.3, 10, 12.5, 25, and 50 μM of each peptide were allowed to react so as to interact with LPS (2 ng/mL) at 37° C. for 10 minutes. LL-37, which is known to have high LPS-neutralizing ability, was used as a control. After an LAL enzyme (10 μL) was added to the peptide-LPS complex and the resulting mixture was allowed to react for 10 minutes, a chromogenic substrate was added thereto. An endotoxin level was shown by measuring the absorbance at 545 nm in triplicate and expressed in endotoxin units (EUs) per milliliter.

[8] = test system: RAW 264.7 mouse macrophages; test: WST-8 cytotoxicity; format: cell-based; conditions: 100 μM, 24 hours
Description: (§3) Additionally, for a cell-based toxicity assay, RAW 264.7 mouse macrophages and human kidney (HK)-2 cells were obtained from the Korean Cell Line Bank (Seoul, Korea), and cells were maintained in a DMEM culture medium (Thermo Fischer Scientific Inc., MA, USA) supplemented with 10% fetal bovine serum and 1% penicillin/streptomycin at 37° C. in a humidified 5% CO2 incubator. The cytotoxicity of the peptides was analyzed using a WST-8 cell proliferation assay (Biomax Co, Ltd, Seoul, South Korea), and the experiment was performed according to the kit protocol. Cells (1×10^4) were seeded in a 96-well plate, the peptide treatment (0 to 100 μM) were initiated at 80% confluency and then the cells were cultured for 24 hours. After culturing, a WST-8 reagent was added and the change in absorbance was read at 450 nm relative to the reagent blank, and values were expressed as percent cell survival.

[9] = test system: human kidney (HK)-2 cells; test: WST-8 cytotoxicity; format: cell-based; conditions: 100 μM, 24 hours
Description: as §3

[10] = test system: Escherichia coli KCTC 1682; test: MIC, broth dilution; format: cell-based; conditions: standard Gram-negative bacteria, 16 hours; read-out: Minimal inhibitory concentration (MIC), E. coli
Text: In addition, carbapenem-resistant E. coli NCCP16044 and carbapenem-resistant Klebsiella pneumonia NCCP 15782 were obtained from the NCCP, and three types of carbapenem-resistant A. baumanii CCARM 12004-6 were obtained from the Culture Collection of Antimicrobial Resistance Microbes (CCARM) (Cheongju City, Korea). The E. coli K1 (ATCC700973) strain used in the animal experiments was obtained from the American Type Culture Collection (ATCC) ([…]).
as §2

[11] = test system: Acinetobacter baumannii KCCM 40203; test: MIC, broth dilution; format: cell-based; conditions: standard Gram-negative bacteria, 16 hours
Text: as §1, §2

[12] = test system: Pseudomonas aeruginosa KCCM 11328; test: MIC, broth dilution; format: cell-based; conditions: standard Gram-negative bacteria, 16 hours
Text: as §1, §2

A. baumannii = format: cell-based; conditions: 37° C.
Description: (§4) Proteolysis of peptides in serum has limited clinical use due to decreased bioavailability and half-life. Therefore, the stability of all the peptides pre-exposed to trypsin and chymotrypsin proteases was investigated and the relative growth inhibition of E. coli and A. baumannii was determined (Table 3). […] Thereafter, 100 μL of a peptide-protease mixture was added to 100 μL of a bacterial suspension (E. coli, A. baumannii, 2×10^5 CFU/mL), and the resulting mixture was further cultured at 37°° C. for 16 hours. A bacterial suspension without a peptide and protease was employed as a negative control. An analysis was performed in triplicates through independent experiments, and the degree of bacterial growth was measured at 600 nm using a microplate reader.

E. coli = format: cell-based; conditions: 37° C.
Description: as §4

[13] = peptide pre-cultured with trypsin 6 hours
[14] = peptide pre-cultured with α-chymotrypsin 6 hours

Row | Compound | Minimal inhibitory concentration (MIC), K. pneumonia [1] | Minimal inhibitory concentration (MIC), CRKP 15782 [2] | MIC [3] | MIC [4] | MIC [5] | MIC [6] | HC10 (peptide concentration that induces 10% hemolysis) ([7]; red cells of sheep) | LPS neutralization (LPS) | Toxicity in RAW264.7 cells [8] | Toxicity in human kidney (HK)-2 cells [9] | MIC [10] | Minimal inhibitory concentration (MIC), A. baumannii [11] | Minimal inhibitory concentration (MIC), P. aeruginosa [12] | Hemolysis of sRBCs ([7]; 100 μM, 1 h) | HC10 (peptide concentration that induces 10% hemolysis) ([7]; sheep red blood cells, 200 μM used when no detectable hemolysis at 100 μM) | MIC, A. baumannii + Trypsin (A. baumannii; [13]) | MIC, A. baumannii + α-Chymotrypsin (A. baumannii; [14]) | MIC, E. coli + Trypsin (E. coli; [13]) | MIC, E. coli + α-Chymotrypsin (E. coli; [14])
1 | CC[C@@H](C)[C@@H](NC(=O)[C@@H](C)NC(=O)[C@@H](CC(C)C)NC(=O)[C@@H](Cc1c[nH]c2ccccc12)NC(=O)[C@@H](CC(C)C)NC(=O)[C@H](N)CCCNC(=N)N)C(=O)N[C@H](Cc1c[nH]c2ccccc12)C(=O)N[C@H](CCCNC(=N)N)C(=O)N[C@H](CCCNC(=N)N)C(N)=O [Pro9-3D, rlwlaiwrr-NH2] (H-[dR][dL][dW][dL][dA][dI][dW][dR][dR]-NH2) | 8 µM (≈ 10.1 µg/mL) | 8 µM (≈ 10.1 µg/mL) | 8 µM (≈ 10.1 µg/mL) | 8 µM (≈ 10.1 µg/mL) | 8 µM (≈ 10.1 µg/mL) | 8 µM (≈ 10.1 µg/mL) | 200 µM |  |  |  |  |  |  |  |  |  |  |  | 
2 | LL-37 |  |  |  |  |  |  |  | 76.5% |  |  |  |  |  |  |  |  |  |  | 
3 | RLWLAIWRR-NH2 [Pro9-3] | 64 µM | 64 µM | 16 µM | 16 µM | 16 µM | 16 µM | 200 µM |  | neither R-Pro9-3 nor Pro9-3 showed toxicity; also recorded: non-toxic | neither R-Pro9-3 nor Pro9-3 showed toxicity; also recorded: non-toxic |  |  |  |  |  |  |  |  | 
4 | RRWIALWLR-NH2 [R-Pro9-3] | 32 µM | 16 µM | 16 µM | 32 µM | 16 µM | 16 µM |  |  | neither R-Pro9-3 nor Pro9-3 showed toxicity; also recorded: non-toxic | neither R-Pro9-3 nor Pro9-3 showed toxicity; also recorded: non-toxic | 16 µM | 16 µM | 64 µM | 3.4% | 200 µM | >64 µM | >64 µM | >64 µM | 64 µM
